Test results as given in patent US10815197B2, “N-sulfonyl benzamides as voltage-gated sodium channel inhibitors” (SHANGHAI HAIYAN PHARMACEUTICAL TECHNOLOGY CO., LTD., priority 2016, dated 2020).
Entries after “also recorded” stand apart in the source; their conditions may differ.

Experiments:
[1] = tested on: SNL-induced cold allodynia in rats; experiment: Cold allodynia in SNL (spinal nerve ligation) rats; format: in vivo, rat
From the text: Assay 3: Cold Allodynia in SNL
The experimental animals were male Sprague-Dawley rats, weighing 140-150 g at the beginning of the experiment. The animals were purchased from Slack company, and food and water were supplied ad lib after purchase. Rats were group-housed, four rats/cage, and individually identified by marking on the tail.
Test Compound and Grouping:
Vehicle: 5% dimethylacetamide(Sinopharm Technology), 5% solutol (Sigma) and 90% saline
Positive control: Pregabalin;
Test compound: compound Z-164;
The positive control and solvent composition of the test compound are 5% dimethylacetamide, 5% solutol and 90% saline.
30 mg/kg Compound Z-164:1.23 mL of dimethylacetamide was added to 148.11 mg of compound Z-164, stirred well until fully dissolved, and then 1.23 mL solutol was added and mixed well. Final volume was made up with 90% saline to 21.44 mL and mixed well before oral administration.
30 mg/kg Pregabalin: 1.08 mL of dimethylacetamide was added to 129.48 mg of Pregabalin, stirred well until fully dissolved, and then 1.08 mL solutol was added and mixed well. Final volume was made up with 90% saline to 21.58 mL and mixed well before oral administration.
1.1. Spinal Nerve Ligation (SNL) model • Surgical procedures are performed aseptically. • The surgical instruments (scissors, tweezers, scalpels, surgical cotton, sutures, retractor) are sterilized prior to surgery. • Animals were anesthetized with pentobarbital (50 mg/kg, i.p.). A toe pinch was used to ensure that the animals were fully anesthetized prior to surgery. Put ophthalmic ointment in the animal's eyes to prevent the corneas from drying out. • The fur on the surgical area of animal's lower body was shaved, and the skin of the surgical area was swabbed with 3 rounds of Betadine and 70% ethanol. The skin was allowed to dry before surgery. • A longitudinal incision will be made by scalpel at the lower lumbar and sacral levels, exposing the paraspinal muscles on the left side. The retractor was used to separate the muscles and tissues to expose the vertebra. • The left L5 and L6 spinal nerves will be isolated and tightly ligated with 6-0 silk thread. • The wound was closed with sutures. • The surgical instruments were cleaned, and sterilized by using a glass bead sterilizer. • Animals were placed on the electric blanket after surgery. Inject 5 ml sterile saline to prevent dehydration. The animals were returned to their home cage after fully awake (walking around).
1.2. Baseline Test of Cold Allodynic and Grouping
The baseline of cold allodynic was measured in rats two days before dosing. Use a pipette to apply 100 μl of acetone to the animal's lateral hind paw skin and the time of slapping, flinching, lifting, licking of the affected paw were recorded for one minute. Acetone was applied twice in total and the two applications were 10 minutes apart. The sum of the two times was recorded as cold allodynic time in rats. The rats were grouped randomized according to the results of baseline test of cold allodynic the day before dosing.
1.3. Cold Allodynic Testing
A pipette was used to apply 100 μl of acetone to the animal's lateral hind paw skin two hours after dosing and the time of slapping, flinching, lifting, licking of the affected paw were recorded for one minute. Acetone was applied twice and the two applications were 10 minutes apart. The sum of the two times was recorded as cold allodynic time in rats.
Oral administration was performed two hours before cold allodynic testing.
1.5. Data Collection and Analysis
Data were collected with Excel and analyzed with Prism.

hNav1.5 = molecular target: T1, hNav1.5 (Homo sapiens, UniProt Q14524); experiment: Manual patch clamp experiment hNav1.5 (HEK-hNav1.5 stable cell line); format: cell-based; conditions: read-out: Nav1.5(IC50/nM)
T1 construct: host or cells: HEK
T1 sequence (Q14524 whole entry): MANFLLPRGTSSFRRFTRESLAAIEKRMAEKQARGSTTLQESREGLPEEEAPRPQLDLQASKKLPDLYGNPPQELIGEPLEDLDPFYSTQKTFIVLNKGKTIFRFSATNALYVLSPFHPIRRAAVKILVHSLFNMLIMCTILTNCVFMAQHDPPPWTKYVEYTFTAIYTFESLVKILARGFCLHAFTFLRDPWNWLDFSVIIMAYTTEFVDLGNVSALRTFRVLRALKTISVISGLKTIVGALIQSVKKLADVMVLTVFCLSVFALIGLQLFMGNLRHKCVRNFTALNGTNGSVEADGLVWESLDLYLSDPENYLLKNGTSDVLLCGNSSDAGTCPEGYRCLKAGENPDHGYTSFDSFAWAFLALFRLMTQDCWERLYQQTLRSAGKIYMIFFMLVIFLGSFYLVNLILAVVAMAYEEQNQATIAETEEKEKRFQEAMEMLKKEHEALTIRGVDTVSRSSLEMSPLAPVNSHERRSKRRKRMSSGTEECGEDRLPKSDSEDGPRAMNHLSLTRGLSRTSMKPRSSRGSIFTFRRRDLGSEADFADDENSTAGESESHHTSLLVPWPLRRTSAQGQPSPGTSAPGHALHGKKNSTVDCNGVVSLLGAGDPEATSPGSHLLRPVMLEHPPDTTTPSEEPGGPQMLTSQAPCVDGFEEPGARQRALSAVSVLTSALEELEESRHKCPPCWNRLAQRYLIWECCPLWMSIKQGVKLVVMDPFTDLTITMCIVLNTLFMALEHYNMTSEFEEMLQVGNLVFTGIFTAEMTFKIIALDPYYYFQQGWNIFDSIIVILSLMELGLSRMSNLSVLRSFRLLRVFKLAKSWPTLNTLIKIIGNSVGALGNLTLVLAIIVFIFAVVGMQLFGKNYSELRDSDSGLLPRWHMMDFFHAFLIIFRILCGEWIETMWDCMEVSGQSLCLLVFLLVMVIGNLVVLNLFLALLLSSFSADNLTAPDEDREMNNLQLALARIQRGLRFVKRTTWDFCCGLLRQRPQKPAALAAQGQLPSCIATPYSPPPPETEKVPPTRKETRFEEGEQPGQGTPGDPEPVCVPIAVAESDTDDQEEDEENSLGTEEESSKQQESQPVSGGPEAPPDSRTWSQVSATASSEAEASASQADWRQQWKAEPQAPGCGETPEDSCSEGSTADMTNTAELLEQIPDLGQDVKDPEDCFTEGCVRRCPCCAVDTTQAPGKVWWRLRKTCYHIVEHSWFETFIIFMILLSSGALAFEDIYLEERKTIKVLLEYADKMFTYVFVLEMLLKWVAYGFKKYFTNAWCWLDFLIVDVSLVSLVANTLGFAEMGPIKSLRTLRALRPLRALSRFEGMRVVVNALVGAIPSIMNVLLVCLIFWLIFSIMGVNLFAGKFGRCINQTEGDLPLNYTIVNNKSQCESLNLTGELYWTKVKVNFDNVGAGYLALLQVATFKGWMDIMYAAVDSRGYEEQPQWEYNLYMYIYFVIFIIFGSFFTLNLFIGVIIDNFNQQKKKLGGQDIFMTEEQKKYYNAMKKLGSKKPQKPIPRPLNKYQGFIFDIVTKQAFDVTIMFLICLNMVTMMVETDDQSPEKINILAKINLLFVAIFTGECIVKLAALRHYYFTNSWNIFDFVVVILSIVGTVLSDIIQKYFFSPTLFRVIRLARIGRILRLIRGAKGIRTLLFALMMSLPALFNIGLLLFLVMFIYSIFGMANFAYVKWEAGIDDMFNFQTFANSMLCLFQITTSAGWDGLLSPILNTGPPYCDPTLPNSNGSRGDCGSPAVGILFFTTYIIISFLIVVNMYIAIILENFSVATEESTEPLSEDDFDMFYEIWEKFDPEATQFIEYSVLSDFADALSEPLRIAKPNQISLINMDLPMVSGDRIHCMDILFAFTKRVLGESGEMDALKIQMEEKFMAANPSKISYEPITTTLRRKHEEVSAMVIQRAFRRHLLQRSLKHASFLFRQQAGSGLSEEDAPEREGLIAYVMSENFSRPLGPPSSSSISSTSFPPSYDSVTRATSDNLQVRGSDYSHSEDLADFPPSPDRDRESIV
From the text: Assay 1: Manual Patch Clamp Experiment of Sodium Ion (hNav1.7, hNav1.5 and hNaV1.8) and Calcium Ion (hCav3.2) Channels
hNav1.7, hNav1.5 Manual Patch Clamp Experiment:
Patch voltage clamp electrophysiology allows for the direct measurement and quantification of current block of voltage-gated sodium channels (NaV's), and allows the determination of the time and voltage-dependence of block which has been interpreted as differential binding to the resting, open and inactivated states of the sodium channel to reflect the compound's inhibitory or activating effects (Hille, B., Journal of General Physiology (1977), 69: 497-515).
Representative compounds of the present invention were subject to a manual patch clamp experiment and the purpose of this study was to test the effect of compounds on this ion channel current on a stable cell line transfected with a specific ion channel using a manual patch clamp method. The used stable cell lines CHO-hNav1.7 and HEK-hNav1.5 were from Genionics and WuXi Apptec (Shanghai) respectively.
Manual patch clamp experimental program is as follows: […]
The time intervals of these two voltage stimulation programs were 10 s. The inhibitory effect of the compound was calculated by the change of the current before and after dosing, the IC50 value was fitted by the Hill equation.

[2] = 30 mg/kg p.o., two hours after dosing

Compound: Cc1cc(N2CCN(Cc3cc(F)c(C(=O)NS(=O)(=O)C4CC4)cc3Cl)CC2)ccc1Cl [Compound Z-164]
- Anti-allodynia Effect (mean, %) [1, 2]: 39.7%
- Response duration (mean, s) the next day (Baseline) [1, 2]: 24.327 s
- inhibition of SNL-induced cold allodynia (in words) ([1]; 30 mg/kg, 2 hr post oral administration): statistically significant inhibitory effect; also recorded: inhibition of SNL-induced cold allodynia
- Response duration (mean, s) the first day (Baseline) ([1]; acetone cold allodynia, baseline before dosing): 36.831 s
- IC50 (hNav1.5): 6160 nM
